Measurements from patent publication US20250163104A1, “MACROCYCLIC IMMUNOMODULATORS” (priority 2021, published 2025).
Where a SMILES comes first, the peptide text is derived from it. Bridges are numbered along the chain shown (N, C = ends). [ ]: non-standard residue; d: D form. The star is where a group is joined. ξ: configuration not given here. Phe(4-COOH) = N[C@@H](Cc1ccc(C(=O)O)cc1)C(=O)O; Bip = N[C@@H](Cc1ccc(-c2ccccc2)cc1)C(=O)O; Phe(3-Me) = Cc1cccc(C[C@H](N)C(=O)O)c1; 4Pal = N[C@@H](Cc1ccncc1)C(=O)O; Aad = N[C@@H](CCCC(=O)O)C(=O)O; Cha = N[C@@H](CC1CCCCC1)C(=O)O; Thr(3ξ) = CC(O)[C@H](N)C(=O)O; Ahp(2) = CCCCC[C@H](N)C(=O)O; Carboxymethyl = O=C(O)C*; Orn = NCCC[C@H](N)C(=O)O; Dab = NCC[C@H](N)C(=O)O; Dap = NC[C@H](N)C(=O)O

These compounds were tested against T1, human PD-1 / PD-L1-Ig binding on Jurkat cell line over-expressing human PD-1 (Jurkat-PD-1) (Homo sapiens, UniProt Q15116) (assay: Jurkat-PD-1 Cell Binding High-Content Screening Assay (CBA)). Conditions: Jurkat-PD-1 cells, PE-labeled PD-L1-Ig 20 nM final; read-out: Jurkat HPD1_PDL1 IC50.
T1 construct: expressed in transfected cells; host or cells: Jurkat
T1 sequence (Q15116 25-288): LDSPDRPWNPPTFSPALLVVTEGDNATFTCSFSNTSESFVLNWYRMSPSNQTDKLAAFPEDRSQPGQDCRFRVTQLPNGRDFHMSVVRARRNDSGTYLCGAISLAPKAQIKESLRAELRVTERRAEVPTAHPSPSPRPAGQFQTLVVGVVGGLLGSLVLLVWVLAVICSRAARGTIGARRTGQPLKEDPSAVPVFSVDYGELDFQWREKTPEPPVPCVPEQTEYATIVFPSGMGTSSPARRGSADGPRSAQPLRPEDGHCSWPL
Type: cell-based
Outline: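 Jurkat-hPD-1 cells in DMEM with 10% fetal calf serum receive test compound and are held at 37° C for 2 h. PE-labeled PD-L1-Ig is added at 20 nM final and left for 1 hour. Cells are then fixed and Hoechst-stained, and binding is measured by imaging.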
`CC(C)C[C@H]1NC(=O)[C@H](CCCN)NC(=O)[C@H](C(C)C)NC(=O)[C@H](Cc2ccc(-c3ccccc3)cc2)NC(=O)[C@H](C(C)C)NC(=O)[C@H](Cc2c[nH]c3ccccc23)NC(=O)[C@H](CC(=O)O)NC(=O)[C@H](Cc2ccc(OCC(=O)O)cc2)NC(=O)[C@@H]2CC(N)CN2C(=O)CSC[C@@H](C(=O)N[C@@H](C)C(N)=O)NC(=O)[C@H](C(C)O)NC(=O)[C@H](C(C)C)NC(=O)[C@H](CC2CCCCC2)NC(=O)[C@H](CCN)NC1=O` (stereo partly shown) [Compound 2523] was tested, and the IC50 was 9.6 nM. `CC(C)C[C@H]1NC(=O)[C@H](CCCN)NC(=O)[C@H](C(C)C)NC(=O)[C@H](Cc2ccc(-c3ccccc3)cc2)NC(=O)[C@H](C(C)C)NC(=O)[C@H](Cc2c[nH]c3ccccc23)NC(=O)[C@H](CC(=O)O)NC(=O)[C@H](Cc2ccc(O)cc2)NC(=O)[C@H](CCCNC(=N)N)NC(=O)CSC[C@@H](C(=O)N[C@@H](C)C(N)=O)NC(=O)[C@H](C(C)O)NC(=O)[C@H](C(C)C)NC(=O)[C@H](CC2CCCCC2)NC(=O)[C@H](CCN)NC1=O` (stereo partly drawn) [Compound 2524] ({CH2CO}-RYDWV[Bip]V[Orn][dL][Dab][Cha]V[Thr(3ξ)]CA-NH2; thioether N-14) gave an IC50 of 12.2 nM. With `CC(C)C[C@H]1NC(=O)[C@H](CCCN)NC(=O)[C@H](C(C)C)NC(=O)[C@H](Cc2ccc(-c3ccccc3)cc2)NC(=O)[C@H](C(C)C)NC(=O)[C@H](Cc2c[nH]c3ccccc23)NC(=O)[C@H](CC(=O)O)NC(=O)[C@H](Cc2ccc(O)cc2)NC(=O)[C@H](CCC(N)=O)NC(=O)CSC[C@@H](C(=O)N[C@@H](C)C(N)=O)NC(=O)[C@H](C(C)O)NC(=O)[C@H](C(C)C)NC(=O)[C@H](CC2CCCCC2)NC(=O)[C@H](CCN)NC1=O` (stereo partly drawn) [Compound 2525] ({CH2CO}-QYDWV[Bip]V[Orn][dL][Dab][Cha]V[Thr(3ξ)]CA-NH2; thioether N-14) the IC50 was 17.3 nM. With `CC(C)C[C@H]1NC(=O)[C@H](CCCN)NC(=O)[C@H](C(C)C)NC(=O)[C@H](Cc2ccc(-c3ccccc3)cc2)NC(=O)[C@H](C(C)C)NC(=O)[C@H](Cc2c[nH]c3ccccc23)NC(=O)[C@H](CC(=O)O)NC(=O)[C@H](Cc2ccc(O)cc2)NC(=O)[C@H](CC#N)NC(=O)CSC[C@@H](C(=O)N[C@@H](C)C(N)=O)NC(=O)[C@H](C(C)O)NC(=O)[C@H](C(C)C)NC(=O)[C@H](CC2CCCCC2)NC(=O)[C@H](CCN)NC1=O` (stereo partly shown) [Compound 2526] the IC50 was 54.8 nM. `CC(C)C[C@H]1NC(=O)[C@H](CCCN)NC(=O)[C@H](C(C)C)NC(=O)[C@H](Cc2ccc(-c3ccccc3)cc2)NC(=O)[C@H](C(C)C)NC(=O)[C@H](Cc2c[nH]c3ccccc23)NC(=O)[C@H](CC(=O)O)NC(=O)[C@H](Cc2ccc(OCC(=O)O)cc2)NC(=O)[C@H](CCCNC(=N)N)NC(=O)CSC[C@@H](C(=O)N[C@@H](C)C(N)=O)NC(=O)[C@H](C(C)O)NC(=O)[C@H](C(C)C)NC(=O)[C@H](CC2CCCCC2)NC(=O)[C@H](CCN)NC1=O` (stereo partly drawn) [Compound 2530] ({CH2CO}-RY(Carboxymethyl)DWV[Bip]V[Orn][dL][Dab][Cha]V[Thr(3ξ)]CA-NH2; thioether N-14) gave an IC50 of 8.5 nM. Work on `CCC(C)[C@@H]1NC(=O)[C@H](Cc2ccc(-c3ccccc3)cc2)NC(=O)[C@H](C(C)C)NC(=O)[C@H](Cc2cccc(C)c2)NC(=O)[C@H](CC(=O)O)NC(=O)[C@H](Cc2ccc(OCC(=O)O)cc2)NC(=O)[C@H](CN)NC(=O)CSC[C@@H](C(=O)N[C@@H](C)C(N)=O)NC(=O)[C@H](CO)NC(=O)[C@H](C(C)C)NC(=O)[C@H](CC2CCCCC2)NC(=O)[C@H](CCN)NC(=O)[C@@H](CC(C)C)NC(=O)[C@H](CCCN)NC1=O` (stereo partly shown) [Compound 2533] yielded an IC50 of 43.7 nM. `CCC(C)[C@@H]1NC(=O)[C@H](Cc2ccc(-c3ccccc3)cc2)NC(=O)[C@H](C(C)C)NC(=O)[C@H](Cc2cccc(C)c2)NC(=O)[C@H](CC(=O)O)NC(=O)[C@H](Cc2ccc(OCC(=O)O)cc2)NC(=O)[C@H](Cc2ccc(OCC(=O)O)cc2)NC(=O)CSC[C@@H](C(=O)N[C@@H](C)C(N)=O)NC(=O)[C@H](CO)NC(=O)[C@H](C(C)C)NC(=O)[C@H](CC2CCCCC2)NC(=O)[C@H](CCN)NC(=O)[C@@H](CC(C)C)NC(=O)[C@H](CCCN)NC1=O` (stereo partly shown) [Compound 2534] gave an IC50 of 21.3 nM. With `CCC(C)[C@@H]1NC(=O)[C@H](Cc2ccc(-c3ccccc3)cc2)NC(=O)[C@H](C(C)C)NC(=O)[C@H](Cc2cccc(C)c2)NC(=O)[C@H](CC(=O)O)NC(=O)[C@H](Cc2ccc(OCC(=O)O)cc2)NC(=O)[C@H](Cc2ccncc2)NC(=O)CSC[C@@H](C(=O)N[C@@H](C)C(N)=O)NC(=O)[C@H](CO)NC(=O)[C@H](C(C)C)NC(=O)[C@H](CC2CCCCC2)NC(=O)[C@H](CCN)NC(=O)[C@@H](CC(C)C)NC(=O)[C@H](CCCN)NC1=O` (stereo partly shown) [Compound 2535] the IC50 was 38 nM. For `CC(C)C[C@H]1NC(=O)[C@H](CCCN)NC(=O)[C@H](C(C)C)NC(=O)[C@H](Cc2ccc(-c3ccccc3)cc2)NC(=O)[C@H](C(C)C)NC(=O)[C@H](Cc2c[nH]c3ccccc23)NC(=O)[C@H](CC(=O)O)NC(=O)[C@H](Cc2ccc(O)cc2)NC(=O)[C@H](CC#N)NC(=O)CSC[C@@H](C(=O)N[C@@H](C)C(N)=O)NC(=O)[C@H](C(C)O)NC(=O)[C@H](C(C)C)NC(=O)[C@H](CC2CCCCC2)NC(=O)[C@H](CCN)NC1=O` (stereo partly shown) [Compound 2536], the IC50 was 10.9 nM. Work on `Cc1cccc(C[C@@H]2NC(=O)[C@H](CC(=O)O)NC(=O)[C@H](Cc3ccc(OCC(=O)O)cc3)NC(=O)[C@H](CCCC(=O)O)NC(=O)CSC[C@@H](C(=O)N[C@@H](C)C(N)=O)NC(=O)[C@H](CO)NC(=O)[C@H](C(C)C)NC(=O)[C@H](CC3CCCCC3)NC(=O)[C@H](CCN)NC(=O)[C@@H](CC(C)C)NC(=O)[C@H](CCCN)NC(=O)[C@H](C(C)C)NC(=O)[C@H](Cc3ccc(-c4ccccc4)cc3)NC(=O)[C@H](C(C)C)NC2=O)c1` [Compound 2537] ({CH2CO}-[Aad]Y(Carboxymethyl)D[Phe(3-Me)]V[Bip]V[Orn][dL][Dab][Cha]VSCA-NH2; thioether N-14) yielded an IC50 of 18.3 nM. Compound `CCC(C)[C@@H]1NC(=O)[C@H](Cc2ccc(-c3ccccc3)cc2)NC(=O)[C@H](C(C)C)NC(=O)[C@H](Cc2cccc(C)c2)NC(=O)[C@H](CC(=O)O)NC(=O)[C@H](Cc2ccc(C(=O)O)cc2)NC(=O)[C@H](CCCNC(=N)N)NC(=O)CSC[C@@H](C(=O)N[C@@H](C)C(N)=O)NC(=O)[C@H](C(C)O)NC(=O)[C@H](C(C)C)NC(=O)[C@H](CC2CCCCC2)NC(=O)[C@H](CCN)NC(=O)[C@@H](CC(C)C)NC(=O)[C@H](CCCN)NC1=O` (stereo partly shown) [Compound 2538] has an IC50 of 9.7 nM. With `CC(C)C[C@H]1NC(=O)[C@H](CCCN)NC(=O)[C@H](CN)NC(=O)[C@H](Cc2ccc(-c3ccccc3)cc2)NC(=O)[C@H](C(C)C)NC(=O)[C@H](Cc2c[nH]c3ccccc23)NC(=O)[C@H](CC(=O)O)NC(=O)[C@H](Cc2ccc(OCC(=O)O)cc2)NC(=O)[C@H](CC#N)NC(=O)CSC[C@@H](C(=O)N[C@@H](C)C(N)=O)NC(=O)[C@H](C(C)O)NC(=O)[C@H](C(C)C)NC(=O)[C@H](CC2CCCCC2)NC(=O)[C@H](CC(N)=O)NC1=O` (stereo partly shown) [Compound 2539] the IC50 was 103 nM. In the case of `CC(C)C[C@H]1NC(=O)[C@H](CCCN)NC(=O)[C@H](CN)NC(=O)[C@H](Cc2ccc(-c3ccccc3)cc2)NC(=O)[C@H](C(C)C)NC(=O)[C@H](Cc2c[nH]c3ccccc23)NC(=O)[C@H](CC(=O)O)NC(=O)[C@H](Cc2ccc(C(=O)O)cc2)NC(=O)[C@H](Cc2ccc(OCC(=O)O)cc2)NC(=O)CSC[C@@H](C(=O)N[C@@H](C)C(N)=O)NC(=O)[C@H](CO)NC(=O)[C@H](C(C)C)NC(=O)[C@H](CC2CCCCC2)NC(=O)[C@H](CCN)NC1=O` [Compound 2540] ({CH2CO}-Y(Carboxymethyl)[Phe(4-COOH)]DWV[Bip][Dap][Orn][dL][Dab][Cha]VSCA-NH2; thioether N-14), the IC50 is reported as 16.1 nM. In the case of `CCCCC[C@@H]1NC(=O)[C@H](Cc2ccc(-c3ccccc3)cc2)NC(=O)[C@H](C(C)C)NC(=O)[C@H](Cc2c[nH]c3ccccc23)NC(=O)[C@H](CC(=O)O)NC(=O)[C@H](Cc2ccc(C(=O)O)cc2)NC(=O)[C@H](Cc2ccncc2)NC(=O)CSC[C@@H](C(=O)N[C@@H](CC(N)=O)C(N)=O)NC(=O)[C@H](CO)NC(=O)[C@H](C(C)C)NC(=O)[C@H](CC2CCCCC2)NC(=O)[C@H](CCN)NC(=O)[C@@H](C)NC(=O)[C@H](CCCN)NC1=O` [Compound 2541] ({CH2CO}-[4Pal][Phe(4-COOH)]DWV[Bip][Ahp(2)][Orn][dA][Dab][Cha]VSCN-NH2; thioether N-14), the IC50 is reported as 58.4 nM. Work on `CC(C)C[C@H]1NC(=O)[C@H](CCCN)NC(=O)[C@H](CCCCN)NC(=O)[C@H](Cc2ccc(-c3ccccc3)cc2)NC(=O)[C@H](C(C)C)NC(=O)[C@H](Cc2c[nH]c3ccccc23)NC(=O)[C@H](CC(=O)O)NC(=O)[C@H](Cc2ccncc2)NC(=O)[C@H](CN)NC(=O)CSC[C@@H](C(=O)N[C@@H](CC(N)=O)C(N)=O)NC(=O)[C@H](C(C)O)NC(=O)[C@H](C(C)C)NC(=O)[C@H](CC2CCCCC2)NC(=O)[C@H](CCN)NC1=O` (stereo partly drawn) [Compound 2542] ({CH2CO}-[Dap][4Pal]DWV[Bip]K[Orn][dL][Dab][Cha]V[Thr(3ξ)]CN-NH2; thioether N-14) yielded an IC50 of 20.5 nM. In the case of `CC(C)[C@@H]1NC(=O)[C@H](Cc2c[nH]c3ccccc23)NC(=O)[C@H](CC(=O)O)NC(=O)[C@H](Cc2ccncc2)NC(=O)[C@H](CN)NC(=O)CSC[C@@H](C(=O)NCC(N)=O)NC(=O)[C@H](C(C)O)NC(=O)[C@H](C(C)C)NC(=O)[C@H](CC2CCCCC2)NC(=O)[C@H](CCN)NC(=O)[C@@H](C)NC(=O)[C@H](CCCN)NC(=O)[C@H](CCN)NC(=O)[C@H](Cc2ccc(-c3ccccc3)cc2)NC1=O` (stereo partly shown) [Compound 2543] ({CH2CO}-[Dap][4Pal]DWV[Bip][Dab][Orn][dA][Dab][Cha]V[Thr(3ξ)]CG-NH2; thioether N-14), the IC50 is reported as 236 nM.
